# From PMC10439185 (Cell Reports Medicine, 2023)
# What was measured:
# PPT1 = molecular target: T1, PPT1 (Mus musculus, UniProt O88531); experiment: microscale thermophoresis; format: binding
# T1 sequence (O88531 28-306): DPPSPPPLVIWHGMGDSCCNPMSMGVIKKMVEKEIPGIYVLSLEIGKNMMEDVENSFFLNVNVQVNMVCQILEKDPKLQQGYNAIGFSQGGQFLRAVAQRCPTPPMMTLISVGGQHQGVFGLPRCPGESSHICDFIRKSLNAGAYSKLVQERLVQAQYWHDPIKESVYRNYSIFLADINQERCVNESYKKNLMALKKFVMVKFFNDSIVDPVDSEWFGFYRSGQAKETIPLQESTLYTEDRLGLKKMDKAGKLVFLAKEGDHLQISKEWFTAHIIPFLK
# PPT1 (endogenous, BMDMs) = molecular target: T2, PPT1 (endogenous, BMDMs) (Mus musculus, UniProt O88531); experiment: cellular thermal shift assay, immunoblot; format: cell-based; conditions: intact BMDMs, 37-62 °C, 3 min
# T2 sequence (O88531 28-306): T1 sequence (O88531 28-306)
smiles,measurement,setting,value
O=C(O)C(=O)Cc1ccccc1 [phenylpyruvate],Kd,PPT1,863 µM
same,thermal shift,"PPT1 (endogenous, BMDMs)",phenylpyruvate treatment significantly changed PPT1 protein stability after heating
